Results taken from PMC4790851, “Iminosugars Inhibit Dengue Virus Production via Inhibition of ER Alpha-Glucosidases—Not Glycolipid Processing Enzymes” (PLoS Neglected Tropical Diseases, 2016).
Where two headings read alike, the source gives them in different places.

Tests used:
[1] = molecular target: T1, Mouse ER α-glucosidase II (Mus musculus, UniProt Q8BHN3); assay: In vitro enzyme inhibition, 4MUG hydrolysis; type: biochemical; conditions: concentration required to inhibit the enzyme to 50% activity
T1 sequence (Q8BHN3 33-944): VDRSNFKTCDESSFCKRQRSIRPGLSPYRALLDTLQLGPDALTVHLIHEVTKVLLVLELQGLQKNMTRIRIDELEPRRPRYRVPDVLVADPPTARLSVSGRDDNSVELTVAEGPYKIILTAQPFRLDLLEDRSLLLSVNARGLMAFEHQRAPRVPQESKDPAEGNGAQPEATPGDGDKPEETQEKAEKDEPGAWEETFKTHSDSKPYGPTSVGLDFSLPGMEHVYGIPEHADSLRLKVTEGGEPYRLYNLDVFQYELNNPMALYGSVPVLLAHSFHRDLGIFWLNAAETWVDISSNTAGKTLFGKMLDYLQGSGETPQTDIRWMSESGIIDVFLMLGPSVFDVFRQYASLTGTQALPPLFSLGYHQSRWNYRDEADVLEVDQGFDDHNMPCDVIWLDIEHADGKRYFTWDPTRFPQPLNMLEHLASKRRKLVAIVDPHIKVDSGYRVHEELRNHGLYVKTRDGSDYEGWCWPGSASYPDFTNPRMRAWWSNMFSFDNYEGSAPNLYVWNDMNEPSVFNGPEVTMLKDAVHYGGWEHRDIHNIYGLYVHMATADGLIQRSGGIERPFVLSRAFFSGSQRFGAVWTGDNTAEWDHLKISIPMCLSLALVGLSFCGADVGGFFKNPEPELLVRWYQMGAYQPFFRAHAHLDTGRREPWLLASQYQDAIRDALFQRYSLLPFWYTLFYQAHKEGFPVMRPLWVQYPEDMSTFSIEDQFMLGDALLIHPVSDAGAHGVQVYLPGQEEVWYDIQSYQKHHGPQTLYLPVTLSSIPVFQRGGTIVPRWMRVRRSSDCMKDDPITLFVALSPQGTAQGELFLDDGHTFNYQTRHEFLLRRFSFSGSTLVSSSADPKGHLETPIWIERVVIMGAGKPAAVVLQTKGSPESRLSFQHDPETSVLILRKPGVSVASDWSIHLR
T1 sequence (O08795 15-521 partner): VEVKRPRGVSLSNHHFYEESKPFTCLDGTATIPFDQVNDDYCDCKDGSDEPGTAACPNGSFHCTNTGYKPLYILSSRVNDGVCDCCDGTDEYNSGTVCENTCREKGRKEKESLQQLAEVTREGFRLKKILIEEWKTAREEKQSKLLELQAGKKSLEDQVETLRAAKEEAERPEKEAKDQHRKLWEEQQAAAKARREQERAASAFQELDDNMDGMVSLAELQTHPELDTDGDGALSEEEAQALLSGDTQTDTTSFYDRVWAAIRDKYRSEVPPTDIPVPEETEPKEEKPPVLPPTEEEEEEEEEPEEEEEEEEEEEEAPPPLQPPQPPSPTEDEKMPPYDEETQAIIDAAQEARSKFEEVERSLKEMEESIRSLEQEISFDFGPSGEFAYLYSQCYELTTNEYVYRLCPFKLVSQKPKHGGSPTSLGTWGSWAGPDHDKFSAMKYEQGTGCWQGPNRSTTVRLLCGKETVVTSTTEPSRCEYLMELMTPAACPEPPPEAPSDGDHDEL
Procedure: Recombinant Mus musculus ER alpha-glucosidase II inhibition was measured by incubating 20 nM enzyme with various concentrations of inhibitors in 100 mM potassium phosphate pH 7.2 at 37 °C for 5 minutes. Activity was measured by addition of 0.25 mM 4-methylumbelliferyl α-D-glucopyranoside (4MUG) (Sigma Aldrich) in black, non-binding surface-treated microplates (Corning). Fluorescence upon hydrolysis of the 4MUG was measured at λex of 355 nm and λem of 460 nm in a M5 multi-mode plate reader (Molecular Devices) at 37 °C, measuring fluorescence every minute for a total of 30 minutes. The initial velocity was fit in the linear range of measurements, and activity was normalized to the uninhibited control in order to plot activity against the inhibitor concentration. A sigmoidal, four-parameter function with a variable slope was used to determine the EC50 values in Prism (GraphPad).

[2] = molecular target: T2, Rat intestinal isomaltase (Rattus norvegicus, UniProt P23739); assay: In vitro enzyme inhibition, glucose release from disaccharide; type: biochemical
T2 construct: from tissue; host or cells: rat intestine

MDMΦs = assay: Cytotoxicity, MTS cell proliferation assay; type: cell-based, human
Procedure: Cytotoxicity of compounds was assessed by a cell proliferation assay for metabolic activity using a CellTiter 96 AQueous One Solution Cell Proliferation Assay (Promega) as per the manufacturer’s instructions. Briefly, 20 μl of a solution containing tetrazolium compound [3-(4,5-[…])-5-(3-carboxymethoxyphenyl)-2-(4-sulfophenyl)-2H-tetrazolium; MTS] and electron coupling reagent (phenazine ethosulfate) was added to cells covered or suspended in 100 μl of culture medium in a 96-well plate. Samples were incubated for approximately 4 hours (37°C, 5% CO2), and the absorbance at 490 nm (A490) was measured on a SpectraMax M5 microplate reader (Molecular Devices).

Rat intestinal maltase = assay: In vitro enzyme inhibition, glucose release from disaccharide; type: biochemical; conditions: concentration required to inhibit the enzyme to 50% activity
Procedure: Inhibition of glucosidases and glycosidases was detected as previously described. Briefly, assays were performed at the optimum pH of each enzyme, and appropriate disaccharide was provided as substrate for glucosidase release assays. Release of D-glucose was measured using a Glucose B-test (Wako Diagnostics). Appropriate p-nitrophenyl glycoside was added as substrate for additional glycosidase assays, and assays were stopped by adding 400 mM Na2CO3. Release of p-nitrophenol was measured spectrophotometrically at 400 nm.

DENV2 strain 16681 = assay: In vitro antiviral assay: infectious DENV titer from infected MDMΦs by LLC-MK2 plaque assay; type: cell-based, dengue virus serotype 2; conditions: Dengue virus, DENV2, LLC-MK2, 48 h, MDMΦs infected with DENV2 MOI 1, drug 48 h, infectious titer by plaque assay; table values with 95% confidence interval in parentheses; read-out: EC50
DENV = tested on: DENV; design: method as in PMID 23070155, PMID 23376501, PMID 22020302, PMID 22867971; conditions: post-exposure therapeutic administration; cited from earlier work
Rat intestinal sucrase = molecular target: T3, Rat intestinal sucrase (Rattus norvegicus, UniProt P23739); assay: In vitro enzyme inhibition, glucose release from disaccharide; type: biochemical
T3 construct: from tissue; host or cells: rat intestine

Glucosyltransferase HL60 = molecular target: T4, Glucosyltransferase HL60 (Homo sapiens, UniProt Q16739); assay: In vitro enzyme inhibition; type: biochemical
T4 construct: endogenous in cells; host or cells: HL60
T4 sequence (Q16739 1-394): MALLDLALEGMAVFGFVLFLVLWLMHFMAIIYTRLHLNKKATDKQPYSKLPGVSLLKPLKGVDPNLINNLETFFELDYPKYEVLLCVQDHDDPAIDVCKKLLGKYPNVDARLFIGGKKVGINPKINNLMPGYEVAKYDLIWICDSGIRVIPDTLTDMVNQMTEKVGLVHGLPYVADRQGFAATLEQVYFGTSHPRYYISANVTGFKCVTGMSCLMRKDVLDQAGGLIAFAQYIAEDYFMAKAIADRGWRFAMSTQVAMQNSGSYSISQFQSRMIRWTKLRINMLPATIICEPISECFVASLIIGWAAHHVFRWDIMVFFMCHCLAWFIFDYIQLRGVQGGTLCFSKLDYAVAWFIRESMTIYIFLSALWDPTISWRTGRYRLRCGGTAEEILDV

[3] = molecular target: Human lysosome α-glucosidase (Homo sapiens, UniProt P10253); assay: In vitro enzyme inhibition; type: biochemical
[4] = molecular target: T5, Human lysosome α-galactosidase (Homo sapiens, UniProt P06280); assay: In vitro enzyme inhibition; type: biochemical
T5 sequence (P06280 32-429): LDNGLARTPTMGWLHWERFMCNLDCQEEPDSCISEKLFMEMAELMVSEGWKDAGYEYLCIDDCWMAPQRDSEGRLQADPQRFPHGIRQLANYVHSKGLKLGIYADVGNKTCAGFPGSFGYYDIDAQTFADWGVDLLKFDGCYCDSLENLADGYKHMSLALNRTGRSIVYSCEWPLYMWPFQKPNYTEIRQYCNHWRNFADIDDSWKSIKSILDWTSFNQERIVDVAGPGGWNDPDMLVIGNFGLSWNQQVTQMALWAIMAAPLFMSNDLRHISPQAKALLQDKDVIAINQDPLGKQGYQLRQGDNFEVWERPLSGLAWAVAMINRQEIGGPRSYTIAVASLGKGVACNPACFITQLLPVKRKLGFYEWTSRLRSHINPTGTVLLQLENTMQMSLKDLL

[5] = tested on: monosialodihexosylganglioside (GM3) production; assay: Glycosphingolipid analysis: GM3 levels in MDMΦs by NP-HPLC; type: cell-based, human; conditions: 48 h, uninfected MDMΦ, normalized to untreated controls, mean ± SD, min. 3 donors
[6] = concentration required to inhibit the enzyme to 50% activity, read-out: IC50

T2 sequence (P23739 whole entry): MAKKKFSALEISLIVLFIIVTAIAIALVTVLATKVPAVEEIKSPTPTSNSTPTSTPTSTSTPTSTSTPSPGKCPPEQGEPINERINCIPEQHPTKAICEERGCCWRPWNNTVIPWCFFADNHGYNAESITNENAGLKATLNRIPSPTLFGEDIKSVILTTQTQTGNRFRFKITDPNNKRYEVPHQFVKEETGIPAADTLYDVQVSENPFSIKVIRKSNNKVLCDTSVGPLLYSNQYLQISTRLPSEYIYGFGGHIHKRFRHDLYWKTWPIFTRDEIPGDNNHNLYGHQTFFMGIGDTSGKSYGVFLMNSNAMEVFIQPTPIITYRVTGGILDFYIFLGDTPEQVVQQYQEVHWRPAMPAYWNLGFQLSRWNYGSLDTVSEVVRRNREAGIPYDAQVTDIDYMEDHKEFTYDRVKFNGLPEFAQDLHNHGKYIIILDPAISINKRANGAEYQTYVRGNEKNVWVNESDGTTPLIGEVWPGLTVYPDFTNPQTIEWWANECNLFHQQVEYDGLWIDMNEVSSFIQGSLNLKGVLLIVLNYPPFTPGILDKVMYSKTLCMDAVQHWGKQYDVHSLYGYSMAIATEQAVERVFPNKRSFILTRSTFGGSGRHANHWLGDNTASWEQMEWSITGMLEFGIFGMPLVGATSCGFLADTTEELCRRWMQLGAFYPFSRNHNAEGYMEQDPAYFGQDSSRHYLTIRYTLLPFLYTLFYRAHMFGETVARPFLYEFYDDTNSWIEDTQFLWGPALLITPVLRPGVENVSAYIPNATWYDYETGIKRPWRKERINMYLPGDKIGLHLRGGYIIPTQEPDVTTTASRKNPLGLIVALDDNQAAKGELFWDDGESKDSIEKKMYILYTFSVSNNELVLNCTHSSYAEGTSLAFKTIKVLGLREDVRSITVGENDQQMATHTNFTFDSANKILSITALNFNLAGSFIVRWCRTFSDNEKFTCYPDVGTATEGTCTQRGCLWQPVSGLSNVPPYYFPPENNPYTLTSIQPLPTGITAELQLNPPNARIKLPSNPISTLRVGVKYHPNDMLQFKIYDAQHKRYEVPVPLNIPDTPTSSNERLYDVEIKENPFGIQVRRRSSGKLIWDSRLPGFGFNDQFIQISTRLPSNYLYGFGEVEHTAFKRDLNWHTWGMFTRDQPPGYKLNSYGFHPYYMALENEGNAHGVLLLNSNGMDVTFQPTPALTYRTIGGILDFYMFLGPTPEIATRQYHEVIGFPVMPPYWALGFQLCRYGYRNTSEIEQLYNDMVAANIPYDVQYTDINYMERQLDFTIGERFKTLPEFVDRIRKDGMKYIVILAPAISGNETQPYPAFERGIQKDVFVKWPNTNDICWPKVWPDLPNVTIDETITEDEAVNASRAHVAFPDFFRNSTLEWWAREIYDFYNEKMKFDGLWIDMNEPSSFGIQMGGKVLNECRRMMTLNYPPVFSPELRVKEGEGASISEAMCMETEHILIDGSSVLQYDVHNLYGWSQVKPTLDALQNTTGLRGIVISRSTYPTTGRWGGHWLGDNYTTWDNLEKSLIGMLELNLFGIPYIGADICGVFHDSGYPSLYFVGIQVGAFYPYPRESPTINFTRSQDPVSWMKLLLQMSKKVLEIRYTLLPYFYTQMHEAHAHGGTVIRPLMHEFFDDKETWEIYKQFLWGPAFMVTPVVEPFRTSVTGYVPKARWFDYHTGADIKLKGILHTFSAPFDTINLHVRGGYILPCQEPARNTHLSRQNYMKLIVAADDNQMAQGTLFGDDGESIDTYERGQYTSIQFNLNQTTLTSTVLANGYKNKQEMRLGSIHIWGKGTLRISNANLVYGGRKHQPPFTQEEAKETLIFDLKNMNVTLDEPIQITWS
T3 sequence (P23739 whole entry): as above

Compound	IC50 [1] [µM]	IC50 [2, 6] [µM]	MNTD (maximum non-toxic dose tested) (MDMΦs) [µM]	IC50 (Rat intestinal maltase) [µM]	EC50 (DENV2 strain 16681) [µM]	protection in lethal mouse models of DENV infection (DENV)	IC50 (Rat intestinal sucrase; [6]) [µM]	IC50 (Glucosyltransferase HL60) [µM]	IC50 [3] [µM]	IC50 [2] [µM]	IC50 [4] [µM]	GM3 production (%) ([5]; 100 μM (MNTD))	IC50 (Rat intestinal sucrase) [µM]	IC50 [3, 6] [µM]	IC50 [4, 6] [µM]	GM3 production (%) ([5]; 31.6 μM (MNTD))
OC[C@H]1NC[C@H](O)[C@@H](O)[C@@H]1O [DNJ, 1-Deoxynojirimycin]	11.4	0.8	10000	0.2	308	–	–	–	–	–	–	–	–	–	–	–
COCCCCCCCCCN1C[C@H](O)[C@@H](O)[C@H](O)[C@H]1CO [MON-DNJ, N-(9-methoxynonyl)-DNJ]	–	–	–	–	–	protection in lethal mouse models	–	–	–	–	–	–	–	–	–	–
OC[C@H]1NC[C@H](O)[C@@H](O)[C@H]1O [DGJ, 1-deoxygalactonojirimycin]	> 1000	> 1000	–	362	–	–	340	–	–	–	–	–	–	–	–	–
O[C@H]1[C@H](O)[C@@H](O)CN2CC[C@H](O)[C@H]12 [Castanospermine, castanospermine]	58.9	–	100	0.37	36.4	–	–	> 1000	2	6.1	> 1000	101.6 ± 6.7	0.28	–	–	–
CCCCCCCCCN1C[C@H](O)[C@@H](O)[C@H](O)[C@H]1CO [NN-DNJ]	3.1	7.3	31.6	0.46	1.25	–	0.74	–	–	–	–	–	–	0.14	765	5.9 ± 1.2
